Test results: EPA's ToxRefDB 2

Legend:
mouse [1] = details: Subchronic oral toxicity in rodents, b6c3f1, Gavage/Intubation, dose end: 13 week, group: systemic, systemic / in life observation / clinical signs / lethargy + systemic / organ weight / liver / absolute + systemic / organ weight / liver / …
rat [2] = details: Subchronic oral toxicity in rodents, fischer, Gavage/Intubation, dose end: 13 week, group: systemic
rat [3] = details: Prenatal developmental toxicity study, sprague dawley, Oral, Gavage/Intubation, dose end: 15 GD
rat [4] = details: Carcinogenicity, fischer, Oral, Gavage/Intubation, dose end: 2 year, group: systemic
rat [5] = details: Multigenerational reproductive toxicity study, sprague dawley, Oral, Gavage/Intubation, dose end: 2 generation, group: parental
mouse [6] = details: Carcinogenicity, b6c3f1, Oral, Gavage/Intubation, dose end: 2 year, group: systemic
rabbit [7] = details: Prenatal developmental toxicity study, new zealand white, Oral, Gavage/Intubation, dose end: 18 GD
rat [8] = details: Multigenerational reproductive toxicity study, other, Oral, Feed, dose end: 3 generation, group: parental
rabbit [9] = details: Prenatal developmental toxicity study, Oral, Gavage/Intubation, dose end: 19 GD, group: maternal
primate [10] = details: Sub-acute repeat dose toxicity, Injection, Intravenous, dose end: 14 day, group: systemic
rat [11] = details: Fertility (Segment I); Oral; Gavage/Intubation; dose end: 1 generation; group: parental; systemic / in life observation / body weight / body weight gain + systemic / in life observation / food consumption / food consumption
rat [12] = details: Sub-acute repeat dose toxicity; wistar; Injection; Intravenous; dose end: 14 day; group: systemic; systemic / in life observation / clinical signs / skin discoloration + systemic / pathology microscopic / skin / inflammation + systemic / …
rat [13] = details: Sub-acute repeat dose toxicity, wistar, Oral, Feed, dose end: 14 day, group: systemic
primate [14] = details: Chronic toxicity, Oral, Gavage/Intubation, dose end: 182 day, group: systemic
rat [15] = details: Sub-acute repeat dose toxicity, wistar, Oral, Gavage/Intubation, dose end: 14 day, group: systemic
[16] = systemic / organ weight / liver / absolute + systemic / organ weight / liver / relative to body weight
[17] = group: developmental, systemic / in life observation / body weight / fetal weight
[18] = group: maternal, systemic / in life observation / clinical signs / urine, discoloration
[19] = group: maternal, systemic / in life observation / clinical signs / urine, discoloration + systemic / in life observation / body weight / body weight + …
[20] = systemic / in life observation / body weight / body weight + systemic / organ weight / kidney / relative to body weight + systemic / …
[21] = systemic / in life observation / body weight / body weight + systemic / pathology microscopic / blood / leukemia mononuclear
[22] = systemic / in life observation / clinical signs / tremors + systemic / in life observation / body weight / body weight gain
[23] = systemic / in life observation / body weight / body weight + systemic / pathology microscopic / thyroid gland / hyperplasia + systemic / …
[24] = systemic / pathology microscopic / thyroid gland / hyperplasia + systemic / pathology microscopic / liver / cytomegaly + systemic / …
[25] = group: developmental, developmental / developmental malformation / bone / bent + developmental / developmental malformation / eye / microphthalmia
[26] = group: maternal, systemic / in life observation / body weight / body weight + systemic / in life observation / body weight / body weight gain + systemic / in…
[27] = systemic / in life observation / body weight / body weight gain
[28] = systemic / in life observation / mortality / mortality + systemic / pathology microscopic / liver / hypertrophy + systemic / pathology …
[29] = reproductive / reproductive performance / aborted / aborted + systemic / in life observation / body weight / body weight + systemic / in …
[30] = systemic / clinical chemistry / albumin / albumin + systemic / clinical chemistry / globulins / globulins + systemic / clinical chemistry / …
[31] = systemic / hematology / hematocrit (hct) / hematocrit (hct) + systemic / in life observation / body weight / body weight + systemic / in …
[32] = systemic / hematology / [other] / [other] + systemic / hematology / erythrocyte (rbc) count differential / erythrocyte (rbc) + systemic / …
[33] = systemic / hematology / erythrocyte (rbc) count differential / erythrocyte (rbc) + systemic / hematology / hematocrit (hct) / hematocrit (…
[34] = systemic / clinical chemistry / protein / protein + systemic / hematology / red blood cell distribution width (rdw) / red blood cell …
[35] = systemic / pathology gross / lymph node / enlarged + systemic / in life observation / clinical signs / salivation + systemic / in life …
[36] = systemic / hematology / hematocrit (hct) / hematocrit (hct) + systemic / hematology / hemoglobin (hgb) / hemoglobin (hgb) + systemic / …

## Oc1ccc(O)cc1 [Hydroquinone]
Mouse [1]
  LEL: 25 mg/kg/day
  LOAEL: > 400 mg/kg/day
  NEL: < 25 mg/kg/day
  NOAEL: ≥ 400 mg/kg/day
Rat [2]; systemic / in life observation / clinical signs / lethargy + systemic / pathology microscopic / kidney / degeneration + systemic / pathology…
  LOAEL: 200 mg/kg/day
Rat [2]; [16]
  LEL: 25 mg/kg/day
  NEL: < 25 mg/kg/day
Rat [2]; systemic / organ weight / liver / absolute + systemic / organ weight / liver / relative to body weight + systemic / in life observation / …
  NOAEL: 100 mg/kg/day
Rat [3]; [17]
  LEL: 300 mg/kg/day
  LOAEL: > 300 mg/kg/day
  NEL: 100 mg/kg/day
  NOAEL: ≥ 300 mg/kg/day
Rat [3]; [18]
  LEL: 30 mg/kg/day
  NEL: < 30 mg/kg/day
Rat [3]; [19]
  LOAEL: > 300 mg/kg/day
  NOAEL: ≥ 300 mg/kg/day
Rat [4]; [20]
  LOAEL: 50 mg/kg/day
  NOAEL: 25 mg/kg/day
Rat [4]; [21]
  LEL: 25 mg/kg/day
  NEL: < 25 mg/kg/day
Rat [5]; systemic / in life observation / clinical signs / tremors
  NEL: 50 mg/kg/day
Rat [5]; [22]
  LEL: 150 mg/kg/day
  LOAEL: > 150 mg/kg/day
  NOAEL: ≥ 150 mg/kg/day
Mouse [6]; [23]
  LOAEL: 100 mg/kg/day
  NOAEL: 50 mg/kg/day
Mouse [6]; [24]
  LEL: 50 mg/kg/day
  NEL: < 50 mg/kg/day
Rabbit [7]; [25]
  LEL: 150 mg/kg/day
  LOAEL: > 150 mg/kg/day
  NEL: 75 mg/kg/day
  NOAEL: ≥ 150 mg/kg/day
Rabbit [7]; [26]
  LOAEL: > 150 mg/kg/day
  NEL: 25 mg/kg/day
  NOAEL: ≥ 150 mg/kg/day
Rabbit [7]; group: maternal, systemic / in life observation / food consumption / food consumption
  LEL: 75 mg/kg/day

## ClC1C(Cl)C(Cl)C(Cl)C(Cl)C1Cl (stereo not drawn) [beta-Hexachlorocyclohexane]
Rat [8]; [27]
  LEL: 6.25 mg/kg/day
  NEL: < 6.25 mg/kg/day
Rat [8]; [28]
  LOAEL: > 12.5 mg/kg/day
  NOAEL: ≥ 12.5 mg/kg/day

## CCC(C)C(NC(=O)c1ccccc1SSc1ccccc1C(=O)NC(C(=O)O)C(C)CC)C(=O)O (stereo not drawn) [CI-1012]
Rabbit [9]; [29]
  LOAEL: > 250 mg/kg/day
  NEL: 25 mg/kg/day
  NOAEL: ≥ 250 mg/kg/day
Rabbit [9]; reproductive / reproductive performance / aborted / aborted + systemic / in life observation / body weight / body weight gain + systemic / …
  LEL: 100 mg/kg/day
Primate [10]; [30]
  LEL: 75 mg/kg/day
  NEL: 25 mg/kg/day
Primate [10]; [31]
  LOAEL: > 125 mg/kg/day
  NOAEL: ≥ 125 mg/kg/day
Rat [11]
  LEL: 100 mg/kg/day
  LOAEL: > 500 mg/kg/day
  NEL: 50 mg/kg/day
  NOAEL: ≥ 500 mg/kg/day
Rat [12]
  LEL: 25 mg/kg/day
  LOAEL: > 100 mg/kg/day
  NEL: < 25 mg/kg/day
  NOAEL: ≥ 100 mg/kg/day
Rat [13]; [32]
  LOAEL: > 1500 mg/kg/day
  NOAEL: ≥ 1500 mg/kg/day
Rat [13]; [33]
  LEL: 250 mg/kg/day
  NEL: 100 mg/kg/day
Primate [14]; [34]
  LOAEL: > 250 mg/kg/day
  NOAEL: ≥ 250 mg/kg/day
Primate [14]; [35]
  LEL: 50 mg/kg/day
  NEL: < 50 mg/kg/day
Rat [15]; [36]
  LOAEL: > 1500 mg/kg/day
  NEL: 100 mg/kg/day
  NOAEL: ≥ 1500 mg/kg/day
Rat [15]; systemic / organ weight / spleen / absolute + systemic / pathology microscopic / stomach / hyperplasia
  LEL: 250 mg/kg/day
